Measurements reported in PubChem BioAssay (NCI).
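Following 48 hours of exposure in 96-well plates, responses at five concentrations were used to interpolate endpoints linearly. GI50 is the concentration that inhibits growth by half. TGI: total growth inhibition.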

Assays:
Assay in all cases: NCI-60 cell line screen, 48 h
786-0 renal = system: 786-0 renal
A549 NSCLC = system: A549 NSCLC
BT-549 breast = system: BT-549 breast
HT29 colon = system: HT29 colon
K-562 leukemia = system: K-562 leukemia
NCI-H226 lung = system: NCI-H226 lung
SF-268 CNS = system: SF-268 CNS
SF-539 CNS = system: SF-539 CNS
DLD-1 colon = system: DLD-1 colon
DMS 273 small cell lung = system: DMS 273 small cell lung

| Structure (SMILES) | GI50 (786-0 renal) | TGI (786-0 renal) | GI50 (A549 NSCLC) | TGI (A549 NSCLC) | GI50 (BT-549 breast) | TGI (BT-549 breast) | GI50 (HT29 colon) | TGI (HT29 colon) | GI50 (K-562 leukemia) | TGI (K-562 leukemia) | GI50 (NCI-H226 lung) | TGI (NCI-H226 lung) | GI50 (SF-268 CNS) | TGI (SF-268 CNS) | GI50 (SF-539 CNS) | TGI (SF-539 CNS) | TGI (DLD-1 colon) | TGI (DMS 273 small cell lung) |
| --- | --- | --- | --- | --- | --- | --- | --- | --- | --- | --- | --- | --- | --- | --- | --- | --- | --- | --- |
| COc1c(N2CCN(Cn3c(O)c(N=NC(=O)c4ccncc4)c4cc(F)ccc43)C(C)C2)c(F)cc2c(=O)c(C(=O)O)cn(C3CC3)c12 (stereo not drawn) | 22.3 µM | > 50 µM | > 50 µM | > 50 µM | 37.5 µM | > 50 µM | > 50 µM | > 50 µM | > 50 µM | > 50 µM | 25.4 µM | > 50 µM | 10.6 µM | 38.2 µM | 14.6 µM | > 50 µM | – | – |
| Cc1ncc([N+](=O)[O-])n1CCNC(=O)CCCCCn1ccnc1[N+](=O)[O-] | – | > 100 µM | – | > 100 µM | – | > 100 µM | – | > 100 µM | – | > 100 µM | – | > 100 µM | – | > 100 µM | – | > 100 µM | – | – |
| C=CCCC(=O)N1C=CC(=O)[C@H](O)[C@@H]1/C=C/c1ccccc1 | 9.84 µM | > 32.5 µM | 18.2 µM | > 32.5 µM | 11 µM | > 32.5 µM | 14.4 µM | > 32.5 µM | 9.3 µM | > 32.5 µM | 9.57 µM | > 32.5 µM | 7.03 µM | > 32.5 µM | 7.87 µM | > 32.5 µM | – | – |
| Cc1cc(S(=O)(=O)Nc2nc3cc(Cl)ccc3o2)c(SCc2ccccc2)cc1Cl | 20.1 µM | 38 µM | 23.8 µM | 59.9 µM | 19.3 µM | 38.7 µM | 39.9 µM | > 100 µM | 46.2 µM | > 100 µM | 38.5 µM | > 100 µM | 21.5 µM | 49.7 µM | 17.8 µM | 34.3 µM | – | – |
| CC(=O)O[C@H]1C=CC23OC(=O)[C@]1(C)[C@H]2[C@H](C(=O)O)C12CC(=O)[C@@](CO)(CC[C@H]13)C2 | – | > 100 µM | – | > 100 µM | – | – | – | > 100 µM | – | > 100 µM | – | > 100 µM | – | > 100 µM | – | > 100 µM | > 100 µM | > 100 µM |
| Cn1ncc(-c2ccc3c(=O)[nH]nc(CN)c3c2)c1-c1c(F)cc2ccccc2c1C#N | 5.21 µM | 18.9 µM | 5.14 µM | 18.3 µM | 7.15 µM | 20.2 µM | 3.34 µM | 14.5 µM | 3.41 µM | 38.3 µM | 7.69 µM | 24.3 µM | 4.74 µM | 20.6 µM | 7.6 µM | 20.8 µM | – | – |
| CC1(C)[C@@H](OC(N)=O)C=C[C@]2(C=O)[C@H]3CC[C@]4(C)[C@@H](c5ccc(=O)oc5)[C@@H](Cl)C[C@]4(O)C3=CC[C@@H]12 | 0.00478 µM | 0.0106 µM | 0.00361 µM | 0.00752 µM | 0.00491 µM | 0.0106 µM | 0.00521 µM | 0.011 µM | 0.00668 µM | 0.0197 µM | 0.00433 µM | 0.00829 µM | 0.00301 µM | 0.00621 µM | 0.00442 µM | 0.00848 µM | – | – |
| OC(COc1cccc2ccccc12)CN1CCN(c2ccccc2Cl)CC1 (stereo not drawn) | 15.6 µM | 30.4 µM | 18.2 µM | 35.4 µM | 12.9 µM | 26.3 µM | 3.3 µM | 12.5 µM | 4.58 µM | 17.6 µM | 15 µM | 31.6 µM | 13.9 µM | 29.9 µM | 16.5 µM | 32.8 µM | – | – |
